The text below walks through data of paper PMC10851415 (Biochemistry, 2024).

By Kd is commonly meant a measure of binding affinity in units of concentration. The low end stands for a tighter complex, the high end for a looser complex.

Where only a bound is given, the exact number is not on record here.

The target of test [1] is T1, WT PAN endonuclease (Influenza A virus, UniProt C3W5S0, DEL52-63/E64G). Type of test: binding, influenza A/California/04/2009(H1N1).
For test [2], the target named is T2, I38T mutant PAN endonuclease (Influenza A virus, UniProt C3W5S0, DEL52-63/E64G/I38T). The test is classed as binding, influenza A/California/04/2009(H1N1).
In test [3] the target is T3, E23K mutant PAN endonuclease (Influenza A virus, UniProt C3W5S0, DEL52-63/E23K/E64G). Type of test: binding, influenza A/California/04/2009(H1N1).
For test [4], the target named is T1, WT PAN endonuclease. The test is classed as binding, influenza A/California/04/2009(H1N1). The settings on record: 200 µM.
The target of test [5] is T2, I38T mutant PAN endonuclease. The test is classed as binding, influenza A/California/04/2009(H1N1). The source holds these as a separate data set.
The target of test [6] is T3, E23K mutant PAN endonuclease. Type of test: binding, influenza A/California/04/2009(H1N1). This is another data set of the same source.
Test [7] deals with A36V mutant PAN endonuclease (Influenza A virus, UniProt C3W5S0, A36V/DEL52-63/E64G). Type of test: binding, influenza A/California/04/2009(H1N1). The settings on record: 200 µM.
For a further test, the system named is I38T mutant. The settings on record: cited from earlier work.
Another test relates to WT and I38T mutants. Particulars: cited from earlier work.

Turning to baloxavir acid [BXA], the Kd at WT PAN endonuclease [1] worked out at 0.343 ± 0.106 µM; in test [2], 9.3 ± 4.2 µM; in [3], 26.1 ± 11.2 µM. Also, the ΔTM at WT PAN endonuclease [4] was determined as 22.9 ±0.08 °C; in test [5] (200 µM), 14.9 ±0.04 °C; in [6] (200 µM), 19.8 ±0.06 °C; in test [7], 21.7 ±0.11 °C. Moreover, the “difference in ΔTM compared to WT (lower)” value in test [5] is ~ 8 °C; in [6], under 3 °C. Besides, the reduction in affinity with I38T mutant is reported as 30- to 50 fold. Besides, the “ΔTM melting value between the WT and I38T mutants” value in the test on WT and I38T mutants was 8-10 °C.
